According to patent US7714140B2, “1,2 Benzoisothiazole derivative, and agricultural or horticultural plant disease- controlling agent” (Kumiai Chemical Industry, Co. Ltd., priority 2006, dated 2010):

What was measured:
[1] = system: Pyricularia oryzae; format: in vivo; conditions: paddy rice (Aichi Asahi), root treatment with wettable powder, active ingredient 30 g per 10 ares; inoculated 26 days after treatment; lesions counted 8 days after inoculation
[2] = system: Colletotrichum orbiculare; test: Test for preventive effect for cucumber anthracnose; conditions: cucumber (Sagamihanjiro), soil drench 10 ml, inoculated 7 days later, lesions counted 7 days after
Protocol: Four cucumber seeds (variety: Sagamihanjiro) were sowed in a plastic cup of 5.5 cm in diameter, at a depth of 2 cm, and were grown in a greenhouse for 7 days. […] 10 ml of the dilution was poured into the soil at the root of young cucumber seedlings having cotyledons. 7 days later, a conidia suspension (10^5 to 10^6/ml) of Colletotrichum orbiculare which had been cultured in a PDA plate medium, was uniformly inoculated to the cucumber plant by hand spraying. The cup was allowed to stand in a moist chamber of 25° C. for 24 hours. Then, the cup was allowed to stand on a basin in a glass greenhouse and, 7 day later, the number of lesions of all cotyledons in pot was examined. A protective value was calculated from the expression 1 and evaluated according to the standard of Table 2.
Using a comparative compound shown below, a wettable powder was prepared according to Example 5. A control number thereof was calculated in the same manner as in the above Test Example.

[3] = concentration of active ingredient 1 ppm
[4] = concentration of active ingredient 10 ppm

| SMILES | Evaluation (protective value) [1] | Evaluation (protective value) [2, 3] | Evaluation (protective value) [2, 4] | melting point |
| --- | --- | --- | --- | --- |
| O=S1(=O)N=C(OCc2ccncc2)c2ccccc21 [Comparative compound 1, reference compound] | C (protective value: less than 80.0% to 50.0% or more) | D (protective value: less than 50.0%) | B (protective value: less than 90.0% to 80.0% or more) | – |
| O=S1(=O)N=C(OCc2snc(Cl)c2Cl)c2ccccc21 [Compound No. 1, 3-(3,4-dichloroisothiazol-5-ylmethoxy)-1,2-benzoisothiazole 1,1-dioxide] | B (protective value: less than 90.0% to 80.0% or more) | A (protective value: 100% to 90.0% or more) | A (protective value: 100% to 90.0% or more) | – |
| C=CCOC1=NS(=O)(=O)c2ccccc21 [Probenazole, reference compound] | C (protective value: less than 80.0% to 50.0% or more) | – | – | – |
| Cc1cc(COC2=NS(=O)(=O)c3ccccc32)sn1 [compound 5, 3-(3-methylisothiazol-5-ylmethoxy)-1,2-benzoisothiazole 1,1-dioxide] | B (protective value: less than 90.0% to 80.0% or more) | D (protective value: less than 50.0%) | A (protective value: 100% to 90.0% or more) | 202 to 204 °C |
